Measured values taken from patent publication US10124033B2, “Peptides and methods of use” (BAXALTA INCORPORATED, priority 2014, dated 2018).
Non-standard residues stand in square brackets, D forms with d. Residues, ends and D or L forms follow the SMILES beside them. Tle = CC(C)(C)[C@H](N)C(=O)O

What was measured:
Protein S = molecular target: T1, Protein S (Homo sapiens, UniProt P07225); assay: LANCE IC50 assay (competition TR-FRET) with tracer JBS0684; type: binding; details: Table 4, multiple substitutions in JBS2572; read-out: LANCE IC50
T1 sequence (P07225 41-676 limits assumed): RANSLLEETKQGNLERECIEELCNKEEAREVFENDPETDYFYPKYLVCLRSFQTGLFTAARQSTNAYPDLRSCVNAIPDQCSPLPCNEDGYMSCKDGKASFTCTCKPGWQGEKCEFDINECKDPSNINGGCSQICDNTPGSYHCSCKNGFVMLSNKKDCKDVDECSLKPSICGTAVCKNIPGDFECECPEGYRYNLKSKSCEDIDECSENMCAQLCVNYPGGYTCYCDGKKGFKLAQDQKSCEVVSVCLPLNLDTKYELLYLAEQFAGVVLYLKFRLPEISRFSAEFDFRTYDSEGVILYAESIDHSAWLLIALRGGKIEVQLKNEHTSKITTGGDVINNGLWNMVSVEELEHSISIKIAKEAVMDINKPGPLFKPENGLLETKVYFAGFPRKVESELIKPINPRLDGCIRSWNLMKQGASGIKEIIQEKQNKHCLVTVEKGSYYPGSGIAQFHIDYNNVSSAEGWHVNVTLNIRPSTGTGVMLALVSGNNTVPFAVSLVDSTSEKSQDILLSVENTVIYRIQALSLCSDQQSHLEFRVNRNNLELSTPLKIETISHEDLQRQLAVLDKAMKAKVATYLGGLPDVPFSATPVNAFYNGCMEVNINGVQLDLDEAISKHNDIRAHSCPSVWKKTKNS
Experimental: Peptides also were characterized in a competition, homogenous europium-based TR-FRET assay (LANCE IC50 assay) using JBS0684 as a tracer (i.e., competitor for Protein S binding). The following reagents were mixed together in a Perkin-Elmer ProxiPlate MTP well (indicated concentration is the final concentration): Eu-labeled Protein S (10 nM), Ulight™-labeled Streptavidin (100 nM), tracer (JBS0684 (300 nM)), and peptide (titrated in three-fold dilution steps). The final volume was 50 μl/well. The reaction mix was incubated for 1 hour at room temperature, then the fluorescence emission at 665 nm was recorded on a multi-mode reader (SpectraMax® M5, Molecular Devices) using the following instrument settings: Ex 340 nm, Em 665 nm, delay 50 μsec, integration 100 μsec, reads 100. Binding of tracer peptides to soluble europium-labeled Protein S was detected by Streptavidin labeled with an acceptor fluorophor (ULight™). Inhibition of tracer-binding to Protein S by a non-biotinylated peptide results in a decrease of TR-FRET between the Eu-labeled Protein S and ULight™-labeled Streptavidin. IC50 values were obtained from peptide titration curves at constant tracer concentration using non-linear regression of the fluorescence emission signals at 665 nm.

[1] = molecular target: T2, Protein S/APC cofactor activity (Homo sapiens, UniProt P07225); assay: CAT assay in pooled normal plasma supplemented with 3 nM APC; type: biochemical; details: 6 pM TF, 15 μM phospholipids
T2 construct: host or cells: plasma
T2 sequence (P07225 41-676 limits assumed): T1 sequence (P07225 41-676 limits assumed)
Experimental: Peptides also were tested for improvement of Protein S/APC-dependent thrombin generation in hemophilic plasma using a CAT assay. Protein S enhances the anticoagulation of APC in plasma. The CAT assay quantifies the effect of Protein S on APC-mediated thrombin generation initiated via the extrinsic coagulation pathway (Nicolaes, Blood Coagul. Fibrinolysis, 8:28 (1997)). APC (35 nM) and Protein S (25 nM) was added to Protein 5-depleted plasma, and plasma samples were incubated with high titer heat inactivated anti-human FVIII plasma raised in goat (4490 BU/ml; Baxter BioScience, Vienna, Austria; 50 BU/ml final plasma concentration). Thrombin formation in plasma was followed by calibrated automated thrombography (CAT) in a Fluoroskan Ascent® reader (Thermo Labsystems, Helsinki, Finland) and quantified via the thrombin peak-height. Thrombin generation was determined at high tissue factor (TF) concentration in the absence and in the presence of APC at a concentration that reduces the peak height to 20%. The inhibitory effect of peptides described herein on the APC cofactor activity of Protein S (PS) in plasma was measured in FVIII-inhibited pooled normal plasma supplemented with APC. Complete (100%) Protein S/APC inhibition is the height of the thrombin peak without addition of APC. Lack of (0%) PS/APC inhibition correlates to the thrombin peak-height value with a certain amount of APC. Peptides were ranked by their normalized values in comparison to the mean of wild-type controls including SD at two defined peptide concentrations (EC50 and EC90). […] For the assays, pooled normal plasma was supplemented with 3 nM APC and triggered with 6 pM TF, and 15 μM phospholipids (DOPC/POPS 80/20). Stock APC was diluted with TF-PL-MIX to 24 nM (plasma concentration: 3 nM).

[2] = molecular target: T3, human full-length Protein S (Homo sapiens, UniProt P07225); assay: Biacore (surface plasmon resonance) on immobilized Protein S; type: binding; details: Biacore
T3 construct: using human full-length Protein S and human GAS6
T3 sequence (P07225 41-676 limits assumed): T1 sequence (P07225 41-676 limits assumed)
Experimental: Protein S affinity also was determined via Biacore (Biacore 3000 or Biacore T200) using human full-length Protein S and human GAS6. Briefly, 1000 RU of Protein S or GAS6 were immobilized on a CMS chip. In order to probe the kinetics of Protein S binding peptides to Protein S, the peptides were injected at various concentrations in a HBS-buffer containing 3 mM CaCl2 and 1% DMSO to the flow cell and allowed to interact with the immobilized proteins on the sensor chip. The chip could be regenerated with 4 M MgCl2 in HBS-buffer. Sensorgrams were fitted to a Langmuir binding model for the determination of kon and koff and the calculation of KD. Peptides were tested on their specificity to Protein S with peptide binding studies on the anti-target GAS6.

[3] = plasma stability in mouse plasma; type: in vitro ADME; details: 37° C.
Experimental: (§1) Affinity and activity of all 18 peptides was improved compared to parent JBS2572. […] Activity and stability were improved up to 1.5-fold. Plasma stability was determined in pooled normal human plasma and mouse plasma at 37° C.; exemplary results also are provided in Table 3.

[4] = plasma stability in pooled normal human plasma; type: in vitro ADME
Experimental: as §1

[5] = test system: Protein S/APC dependent thrombin generation; assay: CAT assay in plasmas from individuals with severe hemophilia A; type: biochemical, human; details: plasma of severe hemophilia A patients
C4BP/PS complex = molecular target: T4, C4BP/PS complex (Homo sapiens, UniProt P07225); assay: LANCE IC50 assay on preformed C4BP/PS complex; type: binding; details: two hours of incubation, 100 nM peptide
T4 sequence (P07225 41-676 limits assumed): T1 sequence (P07225 41-676 limits assumed)
Experimental: To investigate the effect of the peptides described herein on PS/C4BP complexes, a LANCE IC50 assay was established using methods similar to those described above. JBS2572 or JBS3216 was added to a preformed C4BP/PS complex. Changes in the complex concentration were followed by recording the TR-FRET signal. For both peptides, a time- and concentration-dependent dissociation of the C4BP/PS complex was observed. The IC50 of JBS3216 was 0.3 nM, and the IC50 of JBS2572 was 2 nM. The time-dependency of the complex reduction was similar for both peptides. After two hours of incubation in the presence of 100 nM JBS2572 or JBS3216, the C4BP/PS complex was reduced to 60% and 50%, respectively. In addition, binding of biotinylated JBS2572 to Protein S was inhibited by C4BP in the LANCE IC50 assay. Pull-down experiments where JBS2697 was coupled to streptavidin sepharose and incubated for one hour at room temperature with (a) Protein S (1.6 pmol) (b) C4BP (8.5 pmol) and (c) Protein S (1.6 pmol)+C4BP (8.5 pmol) supported the results from the modified LANCE IC50 assay.

thrombin generation = thrombin generation in non-human mammals; type: biochemical; details: cynomolgous monkey, marmoset monkey, pig, sheep, dog, rabbit, rat, and mouse

CSCC[C@H](NC(=O)[C@H](Cc1ccc(O)cc1)NC(=O)[C@H](Cc1c[nH]cn1)NC(=O)[C@H](CC(=O)O)NC(=O)[C@H](Cc1ccccc1)NC(=O)[C@H](CC(N)=O)NC(=O)[C@H](Cc1ccc(O)cc1)NC(=O)[C@H](CC(=O)O)NC(=O)[C@H](Cc1ccc(O)cc1)NC(=O)[C@H](Cc1c[nH]c2ccccc12)NC(=O)CNC(=O)[C@H](C)NC(=O)[C@H](CO)NC(=O)[C@@H](NC(=O)[C@H](CC(C)C)NC(=O)CNC(=O)[C@H](Cc1ccc(O)cc1)NC(C)=O)C(C)C)C(=O)N[C@@H](CCC(=O)O)C(=O)N[C@@H](Cc1ccccc1)C(=O)N[C@H](C(N)=O)[C@@H](C)O [JBS3196] (Ac-YGLVSAGWYDYNFDHYMEFT-NH2)
IC50 (Protein S): 0.0022 µM | EC50 [1]: 0.155 µM

CSCC[C@H](NC(=O)[C@H](Cc1ccc(O)cc1)NC(=O)[C@@H](NC(=O)[C@H](CC(=O)O)NC(=O)[C@H](CC(N)=O)NC(=O)[C@H](CC(N)=O)NC(=O)[C@H](Cc1ccc(O)cc1)NC(=O)[C@H](CC(=O)O)NC(=O)[C@H](Cc1ccc(O)cc1)NC(=O)[C@H](Cc1c[nH]c2ccccc12)NC(=O)CNC(=O)[C@H](C)NC(=O)[C@H](CCC(=O)O)NC(=O)[C@@H](NC(=O)[C@H](CC(C)C)NC(=O)CNC(=O)[C@H](Cc1ccc(O)cc1)NC(C)=O)C(C)C)[C@@H](C)O)C(=O)N[C@@H](CCC(=O)O)C(=O)N[C@@H](Cc1ccccc1)C(=O)N[C@H](C(N)=O)[C@@H](C)O [JBS3201] (Ac-YGLVEAGWYDYNNDTYMEFT-NH2)
IC50 (Protein S): 0.0019 µM | EC50 [1]: 0.127 µM

CSCC[C@H](NC(=O)[C@H](Cc1ccc(O)cc1)NC(=O)[C@H](Cc1c[nH]cn1)NC(=O)[C@H](CC(=O)O)NC(=O)[C@H](Cc1ccccc1)NC(=O)[C@H](CC(N)=O)NC(=O)[C@H](Cc1ccc(O)cc1)NC(=O)[C@H](CC(=O)O)NC(=O)[C@H](Cc1ccc(O)cc1)NC(=O)[C@H](Cc1c[nH]c2ccccc12)NC(=O)CNC(=O)[C@H](C)NC(=O)[C@H](CO)NC(=O)[C@@H](NC(=O)[C@H](CC(C)C)NC(=O)CNC(=O)[C@@H](NC(C)=O)[C@@H](C)O)C(C)(C)C)C(=O)N[C@@H](CCC(=O)O)C(=O)N[C@@H](Cc1ccccc1)C(=O)N[C@H](C(N)=O)[C@@H](C)O [JBS3203, Ac-TGL-Tle-SAGWYDYNFDHYMEFT-NH2] (Ac-TGL[Tle]SAGWYDYNFDHYMEFT-NH2)
IC50 (Protein S): 0.0018 µM | EC50 [1]: 0.127 µM

CC(=O)N[C@@H](CCC(=O)O)C(=O)N[C@@H](Cc1ccc(O)cc1)C(=O)N[C@@H](Cc1ccc(O)cc1)C(=O)N[C@H](C(=O)N[C@@H](CO)C(=O)N[C@@H](C)C(=O)NCC(=O)N[C@@H](Cc1c[nH]c2ccccc12)C(=O)N[C@@H](Cc1ccc(O)cc1)C(=O)N[C@@H](CC(=O)O)C(=O)N[C@@H](Cc1ccc(O)cc1)C(=O)N[C@@H](CC(N)=O)C(=O)N[C@H](C(=O)N[C@@H](CC(=O)O)C(=O)N[C@H](C(=O)N[C@@H](Cc1ccc(O)cc1)C(=O)N[C@@H](Cc1ccc(O)cc1)C(=O)N[C@@H](CCC(=O)O)C(=O)N[C@@H](Cc1ccccc1)C(=O)N[C@@H](CCC(=O)O)C(N)=O)[C@@H](C)O)[C@@H](C)O)C(C)C [JBS3216] (Ac-EYYVSAGWYDYNTDTYYEFE-NH2)
koff ([2]; Table 3, read-out: koff): 0.000233 s⁻¹ | kon ([2]; Table 3, read-out: kon): 1.14e+06 M⁻¹ s⁻¹ | Kd ([2]; affinity-matured and modified peptides, read-out: KD): 0.0002 µM | Stability in mouse plasma; 4 hours [%] [3]: 66 ± 23% | binding activity remaining after incubation in human plasma ([4]; 24 hours of incubation in human plasma): 50% | Stability in human plasma; 6 hours [%] ([4]; pooled normal human plasma, 37° C., 6 hours): 80 ± 2% | EC50 [5]: 0.085 µM | C4BP/PS complex reduced to (C4BP/PS complex): 50% | thrombin generation in non-human mammals (thrombin generation): improved thrombin generation
